Experiment: relative permittivity at zero frequency (dimensionless); xn = mol fraction of the nth substance listed
Settings: 100 kPa, Liquid, Dielectrometer

CC(C)CO [2-methyl-1-propanol] + CC(C)(C)O
relative permittivity at zero frequency
Settings | 288.15 K | 293.15 K | 298.15 K | 303.15 K | 308.15 K
x2 = 0 | 19.51 | 18.71 | 17.96 | 17.23 | 16.53
x2 = 0.0497 | 19.46 | 18.65 | 17.85 | 17.09 | 16.37
x2 = 0.0999 | 19.37 | 18.52 | 17.74 | 16.96 | 16.21
x2 = 0.1502 | 19.24 | 18.38 | 17.57 | 16.78 | 16.05
x2 = 0.2002 | 19.09 | 18.24 | 17.43 | 16.62 | 15.84
x2 = 0.2497 | 18.94 | 18.08 | 17.25 | 16.42 | 15.63
x2 = 0.2998 | 18.78 | 17.89 | 17.08 | 16.22 | 15.44
x2 = 0.3507 | 18.6 | 17.71 | 16.88 | 16.01 | 15.2
x2 = 0.4003 | 18.43 | 17.53 | 16.7 | 15.8 | 14.97
x2 = 0.4497 | 18.26 | 17.36 | 16.49 | 15.57 | 14.74
x2 = 0.4998 | 18.11 | 17.15 | 16.3 | 15.34 | 14.47
x2 = 0.5501 | 17.93 | 16.96 | 16.07 | 15.07 | 14.22
x2 = 0.6012 | 17.74 | 16.74 | 15.83 | 14.8 | 13.93
x2 = 0.649 | 17.53 | 16.5 | 15.58 | 14.52 | 13.61
x2 = 0.7003 | 17.3 | 16.24 | 15.28 | 14.2 | 13.27
x2 = 0.751 | 17.02 | 15.93 | 14.96 | 13.84 | 12.91
x2 = 0.8007 | 16.68 | 15.59 | 14.59 | 13.46 | 12.49
x2 = 0.8499 | 16.3 | 15.17 | 14.17 | 13.03 | 12.06
x2 = 0.9002 | 15.8 | 14.67 | 13.69 | 12.53 | 11.55
x2 = 0.9489 | 15.21 | 14.08 | 13.13 | 11.97 | 11.01

CC(C)CO [2-methyl-1-propanol] + CCC(C)O
relative permittivity at zero frequency
Settings | 288.15 K | 293.15 K | 298.15 K | 303.15 K | 308.15 K
x2 = 0 | 19.51 | 18.71 | 17.96 | 17.23 | 16.53
x2 = 0.0488 | 19.46 | 18.66 | 17.9 | 17.17 | 16.47
x2 = 0.1011 | 19.41 | 18.61 | 17.85 | 17.11 | 16.4
x2 = 0.1488 | 19.36 | 18.55 | 17.78 | 17.05 | 16.34
x2 = 0.2005 | 19.31 | 18.49 | 17.72 | 16.98 | 16.27
x2 = 0.2489 | 19.25 | 18.43 | 17.66 | 16.92 | 16.2
x2 = 0.3013 | 19.2 | 18.38 | 17.59 | 16.85 | 16.13
x2 = 0.3511 | 19.14 | 18.31 | 17.53 | 16.78 | 16.05
x2 = 0.3993 | 19.09 | 18.25 | 17.46 | 16.7 | 15.97
x2 = 0.4473 | 19.03 | 18.19 | 17.39 | 16.63 | 15.89
x2 = 0.4984 | 18.98 | 18.13 | 17.32 | 16.56 | 15.81
x2 = 0.5512 | 18.92 | 18.06 | 17.25 | 16.48 | 15.73
x2 = 0.5999 | 18.87 | 18 | 17.18 | 16.4 | 15.65
x2 = 0.649 | 18.81 | 17.94 | 17.1 | 16.32 | 15.56
x2 = 0.7017 | 18.76 | 17.88 | 17.03 | 16.24 | 15.48
x2 = 0.7502 | 18.71 | 17.81 | 16.96 | 16.16 | 15.39
x2 = 0.7989 | 18.66 | 17.75 | 16.89 | 16.08 | 15.3
x2 = 0.851 | 18.61 | 17.69 | 16.81 | 16 | 15.21
x2 = 0.9003 | 18.56 | 17.63 | 16.74 | 15.92 | 15.12
x2 = 0.9499 | 18.51 | 17.57 | 16.67 | 15.83 | 15.03

CC(C)CO [2-methyl-1-propanol] + CCCCO
relative permittivity at zero frequency
Settings | 288.15 K | 293.15 K | 298.15 K | 303.15 K | 308.15 K
x1 = 0.0505 | 19.03 | 18.3 | 17.59 | 16.92 | 16.26
x1 = 0.1011 | 19.05 | 18.31 | 17.61 | 16.93 | 16.27
x1 = 0.1496 | 19.06 | 18.33 | 17.62 | 16.94 | 16.28
x1 = 0.2001 | 19.08 | 18.34 | 17.63 | 16.95 | 16.29
x1 = 0.2488 | 19.1 | 18.36 | 17.65 | 16.97 | 16.31
x1 = 0.3011 | 19.12 | 18.38 | 17.66 | 16.98 | 16.32
x1 = 0.3497 | 19.14 | 18.4 | 17.68 | 16.99 | 16.33
x1 = 0.399 | 19.16 | 18.41 | 17.7 | 17.01 | 16.34
x1 = 0.4511 | 19.18 | 18.43 | 17.71 | 17.02 | 16.36
x1 = 0.5021 | 19.21 | 18.44 | 17.73 | 17.04 | 16.37
x1 = 0.5489 | 19.23 | 18.46 | 17.75 | 17.06 | 16.39
x1 = 0.6004 | 19.26 | 18.5 | 17.77 | 17.07 | 16.4
x1 = 0.6488 | 19.28 | 18.52 | 17.79 | 17.09 | 16.42
x1 = 0.6975 | 19.31 | 18.55 | 17.81 | 17.11 | 16.43
x1 = 0.751 | 19.34 | 18.57 | 17.83 | 17.13 | 16.45
x1 = 0.8004 | 19.37 | 18.6 | 17.86 | 17.15 | 16.46
x1 = 0.848 | 19.4 | 18.62 | 17.88 | 17.17 | 16.48
x1 = 0.8995 | 19.43 | 18.65 | 17.9 | 17.19 | 16.5
x1 = 0.9506 | 19.47 | 18.68 | 17.93 | 17.21 | 16.52
x1 = 1 | 19.51 | 18.71 | 17.96 | 17.23 | 16.53

CC(C)(C)O [2-methylpropan-2-ol] + CCC(C)O
relative permittivity at zero frequency
Settings | 288.15 K | 293.15 K | 298.15 K | 303.15 K | 308.15 K
x1 = 0.0511 | 18.35 | 17.39 | 16.47 | 15.62 | 14.8
x1 = 0.1003 | 18.24 | 17.25 | 16.35 | 15.46 | 14.64
x1 = 0.1512 | 18.11 | 17.13 | 16.22 | 15.31 | 14.47
x1 = 0.199 | 17.97 | 16.98 | 16.06 | 15.15 | 14.28
x1 = 0.2498 | 17.85 | 16.83 | 15.92 | 14.98 | 14.1
x1 = 0.3007 | 17.71 | 16.67 | 15.77 | 14.79 | 13.92
x1 = 0.35 | 17.55 | 16.54 | 15.6 | 14.62 | 13.75
x1 = 0.3997 | 17.42 | 16.36 | 15.44 | 14.44 | 13.54
x1 = 0.4502 | 17.25 | 16.19 | 15.27 | 14.25 | 13.34
x1 = 0.5011 | 17.09 | 16 | 15.09 | 14.05 | 13.14
x1 = 0.5497 | 16.89 | 15.83 | 14.9 | 13.84 | 12.92
x1 = 0.6007 | 16.7 | 15.64 | 14.72 | 13.62 | 12.7
x1 = 0.6511 | 16.5 | 15.42 | 14.5 | 13.41 | 12.47
x1 = 0.701 | 16.28 | 15.17 | 14.26 | 13.17 | 12.23
x1 = 0.7497 | 16.03 | 14.93 | 14.03 | 12.89 | 11.96
x1 = 0.8005 | 15.76 | 14.68 | 13.78 | 12.63 | 11.68
x1 = 0.8488 | 15.49 | 14.39 | 13.5 | 12.32 | 11.39
x1 = 0.9003 | 15.19 | 14.07 | 13.18 | 12.01 | 11.07
x1 = 0.9496 | 14.84 | 13.72 | 12.84 | 11.68 | 10.74
x1 = 1 | 14.49 | 13.38 | 12.49 | 11.34 | 10.4

From the NIST ThermoML archive (doi:10.1021/je3007666)
